Assay results as given in patent publication US5240935A, “Substituted 2-azabicyclo[2.2.2]octane derivatives and compositions and method of use thereof” (Sterling Winthrop Inc., priority 1992, dated 1993).
Structures can show the parent of a compound that is named as a salt. Where two headings read alike, the source gives them in different places.

How the values were obtained:
sigma receptors [1] = target: T1, sigma receptors (Cavia porcellus, UniProt Q60492); experiment: sigma receptor binding, [^3 H](+)-pentazocine, guinea pig brain membranes; set-up: species or system guinea pig (male Hartley); details: for Ki: mean of at least two separate determinations in triplicate, EBDA/LIGAND; for inhibition at 10 µM: read-out: Percent Inhibition of [^3 H](+)-pentazocine binding
T1 construct: Brain tissue was prepared from male Hartley guinea pigs; from tissue; host or cells: brain membranes of male Hartley guinea pigs (22,000 x g pellet)
Procedure: Brain tissue was prepared from male Hartley guinea pigs (Hazelton Labs, Denver, Pa.) which were anesthetized with CO2 and sacrificed by decapitation. All animal care and use procedures were in accord with the "Guide for the Care and Use of Laboratory Animals" (NIH Publ. No. 86-23, 1985). Homogenization was performed in 10 volumes (wt/vol) of 0.32M sucrose with a Brinkmann Polytron at setting 5, 30 sec. The homogenate was centrifuged at 900×g for 10 min at 4° C., and the supernatant was collected and centrifuged at 22,000×g for 20 min at 4° C. The pellet was resuspended in 10 volumes of Tris-HCl buffer (50 mM, pH 7.4), incubated at 37° C. for 30 min, and centrifuged at 22,000×g for 20 min at 4° C. Following this, the pellet was resuspended in Tris buffer and frozen in 5-10 mL aliquots corresponding to a tissue concentration of 100 mg/mL, at -70° C. Binding characteristics of the membranes were stable for at least one month when stored at -70° C.
On the day of the assay, membrane aliquots were thawed, resuspended in fresh Tris-HCl buffer and stored on ice until use. Each assay tube contained 100 μL of [^3 H]-(+)-pentazocine at a final concentration of approximately 0.5 nM or 100 μL of [^3 H]-di(2-tolyl)guanidine (DTG) at a final concentration of approximately 4 nM, 100 μL of various concentrations of the compounds of interest, 500 μL of the tissue suspension and 300 μL of buffer to a final assay volume of 1 mL and a final tissue concentration of approximately 8 mg/tube, corresponding to approximately 0.15 mg protein/tube. Non-specific binding was defined by addition of a final concentration of 1 μM haloperidol to blank tubes for [^3 H](+)-pentazocine assay or by addition of a final concentration of 10 μM haloperidol to blank tubes for [^3 H]DTG assay. All tubes were incubated at 37° C. for 150 min in the [^3 H](+)-pentazocine assay or at 25° C. for 90 min in the [^3 H]DTG assay before termination of the reaction by rapid filtration over Whatman GF/B glass fiber filters that were presoaked in a solution of 0.5% polyethylenimine for at least 1 hr prior to use. Filters were washed with three 4 ml volumes of cold Tris-HCl buffer.
Following addition of scintillation cocktail, samples were allowed to equilibrate for at least 4 hr. The amount of bound radioactivity was determined by liquid scintillation spectrometry using a Beckman LS 5000 TA liquid scintillation counter with an efficiency for tritium of approximately 60%. The results are reported as a percent (%) inhibition of binding at 10 μM.
Scatchard parameters and inhibition constants (Ki values) for the binding of test compounds were also calculated using the EBDA/LIGAND program (McPherson, J. Pharmacol. Meth. 1985, 14, 213-228), purchased from Elsevier/Biosoft, Inc The Ki values are expressed as the mean of at least two separate determinations performed in triplicate.

sigma receptors [2] = experiment: sigma receptor binding, [^3 H]di(2-tolyl)guanidine (DTG), guinea pig brain membranes; set-up: species or system guinea pig (male Hartley); details: [^3 H]DTG approx. 4 nM, 25° C., 90 min; for Ki: mean of at least two separate determinations in triplicate, EBDA/LIGAND; for Percent Inhibition of [^3 H]DTG binding: at 10 μM
Procedure: Brain tissue was prepared from male Hartley guinea pigs (Hazelton Labs, Denver, Pa.) which were anesthetized with CO2 and sacrificed by decapitation. […] Homogenization was performed in 10 volumes (wt/vol) of 0.32M sucrose with a Brinkmann Polytron at setting 5, 30 sec. The homogenate was centrifuged at 900×g for 10 min at 4° C., and the supernatant was collected and centrifuged at 22,000×g for 20 min at 4° C. The pellet was resuspended in 10 volumes of Tris-HCl buffer (50 mM, pH 7.4), incubated at 37° C. for 30 min, and centrifuged at 22,000×g for 20 min at 4° C. Following this, the pellet was resuspended in Tris buffer and frozen in 5-10 mL aliquots corresponding to a tissue concentration of 100 mg/mL, at -70° C. Binding characteristics of the membranes were stable for at least one month when stored at -70° C.

[3] = test system: apomorphine-induced climbing; experiment: apomorphine-induced climbing assay; format: in vivo, mice (male, Swiss-Webster); details: Mus musculus, ip; test compound i.p.; apomorphine 5.5 mg/kg s.c.; rated 20-30 min post drug; Dunnett's Test P<0.05; read-out: Apomorphine-induced climbing assay MED (minimal effective dose for inhibition)
Procedure: (§1) Representative compounds of the invention were tested in vivo in the apomorphine-induced climbing assay and the apomorphine-induced stereotypy assay using the following procedures.
(§2) Male, Swiss-Webster mice (Taconic Farms, Germantown, New York), weight 20-30 grams, were grouped housed in colony facilities for a minimum of two days prior to testing. The colony facility was maintained on a 12 hour light/dark cycle (light: 0600-1800 hours) with water and Agway Prolab 100 rat chow available ad libitum. Each mouse was given an injection of test compound i.p. followed immediately by a s.c. injection of apomorphine 5.5 mg/kg or vehicle. All drugs were administered in a volume of 10 ml/kg body weight. The mice were then placed in individual cylindrical stainless steel climbing cages; 14.5 cm tall, 12 cm in diameter, with walls consisting of 1/16" O.D. bars spaced 0.8-1.0 cm apart, and were allowed to habituate to this environment for 20 minutes. […] Briefly, a (0) was scored for absence of any stereotypic behavior, infrequent stereotypic movements were scored as (1), a (2) was scored for permanent sniffing and a score of (3) indicated intense and continuous stereotypic behavior. Treatment means for the 10 minute totals were calculated for climbing and stereotypy. […] A minimal effective dose (MED) for inhibition was determined for each parameter based on these analyses.

[4] = test system: apomorphine-induced stereotypy; experiment: apomorphine-induced stereotypy assay; format: in vivo, mice (male, Swiss-Webster); details: Mus musculus, ip; test compound i.p.; apomorphine 5.5 mg/kg s.c.; rated 20-30 min post drug; Dunnett's Test P<0.05; read-out: Apomorphine-induced stereotypy assay MED (minimal effective dose for inhibition)
Procedure: as §1, §2

[5] = [^3 H](+)-pentazocine approx. 0.5 nM, 37° C., 150 min
[6] = at 10 μM, [^3 H](+)-pentazocine approx. 0.5 nM, 37° C., 150 min

T1 sequence (Q60492 whole entry): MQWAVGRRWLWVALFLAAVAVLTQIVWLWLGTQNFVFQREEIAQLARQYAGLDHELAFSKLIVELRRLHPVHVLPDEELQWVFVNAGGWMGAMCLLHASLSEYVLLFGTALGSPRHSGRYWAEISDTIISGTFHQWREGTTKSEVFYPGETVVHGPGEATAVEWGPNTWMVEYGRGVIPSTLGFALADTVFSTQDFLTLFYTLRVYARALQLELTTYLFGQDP

## CCOC(=O)C1CC2(C)C(C)CC1N(Cc1ccccc1)C2C (stereo not shown) [Example 2b, ethyl 3,4,8-trimethyl-2-(phenylmethyl)-2-azabicyclo[2.2.2]octane-6-carboxylate]
Sigma receptors [1]; [5]
  Ki: 242 nM
Sigma receptors [2]
  Ki: 240 nM
[3]
  minimal effective dose: 317 µmol/kg
[4]
  minimal effective dose: 951 µmol/kg

## CCOC(=O)C1(C(=O)OCC)CC2(C)C(C)CC1N(Cc1ccccc1)C2C (stereo not shown) [Example 2c, diethyl 3,4,8-trimethyl-2-(phenylmethyl)-2-azabicyclo-[2.2.2] octane-6,6-dicarboxylate]
Sigma receptors [1]; [6]
  inhibition at 10 µM: 79%
Sigma receptors [1]; [5]
  Ki: 1190 nM
Sigma receptors [2]
  Percent Inhibition of [^3 H]DTG binding: 79%
  Ki: 1240 nM

## CC=C1CC2C(C(=O)OCC)CC1C(Cc1ccccc1)N2Cc1ccccc1 (stereo not shown) [Example 3e, ethyl 2,3-di(phenylmethyl)-8-ethylidene-2-azabicyclo-[2.2.2]octane-6-carboxylatetrihydrochloride hydrobromide]
Sigma receptors [1]; [6]
  inhibition at 10 µM: 33%
Sigma receptors [2]
  Percent Inhibition of [^3 H]DTG binding: 57%

## CCC1CC2C(C(C)(C)O)CC1C(Cc1ccccc1)N2C (stereo not drawn) [Example 4e, 3-(phenylmethyl)-8-ethyl-2,α,α-trimethyl-2-azabicyclo[2.2.2]octane-6-methanol]
Sigma receptors [1]; [6]
  inhibition at 10 µM: 72%
Sigma receptors [1]; [5]
  Ki: 2960 nM
Sigma receptors [2]
  Percent Inhibition of [^3 H]DTG binding: 75%
  Ki: 2880 nM

## CCOC(=O)C1CC23CCCCC2CC1N(Cc1ccccc1)C3C (stereo not shown) [Example 5e, Ethyl 2,3,4,4a,5,6,7,8-octahydro-1-methyl-2-(phenylmethyl)-1H-3,8a-ethanoisoquinoline-10-carboxylate hydrochloride]
Sigma receptors [1]; [5]
  Ki: 332 nM
Sigma receptors [1]
  inhibition at 10 µM: 97%
Sigma receptors [2]
  Ki: 357 nM

## CCOC(=O)C1(SC)CC2(C)C(C)CC1N(C)C2C (stereo not shown) [Example 6, ethyl 2,3,4,8-tetramethyl-6-(methylthio)-2-azabicyclo[2.2.2]octane-6-carboxylate]
Sigma receptors [1]; [6]
  inhibition at 10 µM: 63%
Sigma receptors [1]; [5]
  Ki: 5950 nM
Sigma receptors [2]
  Percent Inhibition of [^3 H]DTG binding: 75%
  Ki: 2710 nM

## CC1CC2C(C(C)(C)O)CC1(C)C(C)N2Cc1ccccc1 (stereo not drawn) [Example 7, α,α,3,4,8-pentamethyl-2-(phenylmethyl)-2-azabicyclo[2.2.2]octane-6-methanol]
Sigma receptors [1]; [6]
  inhibition at 10 µM: 59%
Sigma receptors [1]; [5]
  Ki: 6060 nM
Sigma receptors [2]
  Ki: 6110 nM

## CCOC(=O)C1(C)CC2(C)C(C)CC1N(Cc1ccccc1)C2C (stereo not shown) [Example 8a, ethyl 2-(phenylmethyl)-3,4,6,8-tetramethyl-2-azabicyclo[2.2.2]octane-6-carboxylate]
Sigma receptors [1]; [5]
  Ki: 9820 nM
Sigma receptors [2]
  Percent Inhibition of [^3 H]DTG binding: 29%
  Ki: 6470 nM

## CC(=O)C1(C)CC2(C)C(C)CC1N(Cc1ccccc1)C2C (stereo not shown) [Example 8b, 1-[3,4,6,8-tetramethyl-2-(phenylmethyl) -2-azabicyclo[2.2.2]oct-6-yl]ethanone]
Sigma receptors [1]; [6]
  inhibition at 10 µM: 47%
Sigma receptors [1]; [5]
  Ki: 8880 nM
Sigma receptors [2]
  Percent Inhibition of [^3 H]DTG binding: 65%
  Ki: 4560 nM

## CCOC(=O)C1CC2C(C)NC1CC2C(C)C (stereo not shown) [Example 9e, ethyl 3-methyl-8-isopropyl-2-azabicyclo-[2.2.2]octane-6-carboxylate]
Sigma receptors [1]
  inhibition at 10 µM: 30%
Sigma receptors [2]
  Percent Inhibition of [^3 H]DTG binding: 48%

## CCOC(=O)C1CC2C(C(C)C)CC1N(Cc1ccccc1)C2C (stereo not shown) [Example 9f, ethyl 3-methyl-8-(isopropyl)-2-(phenylmethyl)-2-azabicyclo[2.2.2]octane-6-carboxylate]
Sigma receptors [1]; [5]
  Ki: 141 nM
Sigma receptors [2]
  Ki: 75.5 nM
[3]
  minimal effective dose: 304 µmol/kg
[4]
  minimal effective dose: 304 µmol/kg

## CC1CC2C(CO)CC1(C)C(C)N2C (stereo not shown) [Example 10, 2,3,4,8-tetramethyl-2-azabicyclo[2.2.2]octane-6-methanol]
Sigma receptors [1]
  inhibition at 10 µM: 24%
Sigma receptors [2]
  Percent Inhibition of [^3 H]DTG binding: 48%

## CC(=O)C1CC2C(C(C)C)CC1N(Cc1ccccc1)C2C (stereo not shown) [Example 11b, 1-[3-methyl-8-isopropyl-2-(phenylmethyl)-2-azabicyclo[2.2.2]octan-6-yl]-ethanone]
Sigma receptors [1]; [6]
  inhibition at 10 µM: 77%
Sigma receptors [1]; [5]
  Ki: 2620 nM
Sigma receptors [2]
  Percent Inhibition of [^3 H]DTG binding: 86%
  Ki: 1010 nM
